Tests used:
Type in all cases: in vivo
[1] = test system: four weed species (POLCO, BRAPL, COMBE, DIGSA); assay: Glasshouse weed test, mesotrione with adjuvants at several rates, mean across species; conditions: Table 25, Example 21: absence of adjuvant, mesotrione 60 or 120 g/ha, Tetronic 1107, mean over two rates, three replicates, 14 and 21 days
Experimental: An agrochemical composition was prepared containing either 0.2, 0.1, 0.05 or 0.025% v/v of the adjuvant in a track sprayer and was applied at a volume of 200 liters per hectare. The commercial adjuvant Tween20® was applied at 0.2% v/v. Mesotrione was applied at either 60 or 120 grams of pesticide per hectare on weeds which had been grown to the 1.3 or 1.4 leaf stage. The commercially available surfactant Tetronic® 1107 was used in the spray tank at a concentration of 0.036 g/l alongside the lower concentration of mesotrione and at a concentration of 0.072 g/l at the higher concentration of mesotrione. The weed species were Polygonum convolvulus (POLCO) 13, Brachiaria platyphylla (BRAPL) 12-13, Comelina berghalensis (COMBE) 12 and Digitaria sanguinalis (DIGSA) 13.
Each spray test was replicated three times. The efficacy of the herbicide was assessed visually and expressed as a percentage of the leaf area killed. Samples were assessed at time periods of 14 and 21 days following application. The results shown in Table 25 below are mean averages over the two rates of mesotrione, three replicates, four weed species and the two assessment timings. The adjuvants are compared to the efficacy of mesotrione in the absence of adjuvant and mesotrione in the presence of the well-known adjuvant Tween®20.

[2] = test system: three weed species (XANST, BRAPL, DIGSA); assay: Glasshouse weed test, mesotrione with adjuvants, mean across species; conditions: mean over two rates
Experimental: (§1) The aromatic ester Finsolv® TN (C12-C15 alkyl benzoate) was tested in a glasshouse against three weed species using the herbicide mesotrione. An agrochemical composition was prepared containing 0.2% v/v of the adjuvant in a track sprayer and was applied at a volume of 200 liters per hectare. Mesotrione was applied at either 60 or 120 grams of pesticide per hectare on weeds which had been grown to the 1.3 or 1.4 leaf stage. The weed species were Xanthium strumarium (XANST), Brachiaria platyphylla (BRAPL), and Digitaria sanguinalis (DIGSA). The commercially available surfactant Tetronic® 1107 was used in the spray tank at a concentration of 0.036 g/l alongside the lower concentration of mesotrione and at a concentration of 0.072 g/l at the higher concentration of mesotrione.
(§2) Each spray test was replicated three times. The efficacy of the herbicide was assessed visually and expressed as a percentage of the leaf area killed. Samples were assessed at time periods of 7, 14 and 20 days following application. The results shown in Table 10 below are mean averages over the two rates of mesotrione, three replicates and the three assessment timings, and are compared to the efficacy of mesotrione in the absence of adjuvant and mesotrione in the presence of the well-known adjuvant Tween® 20.
A second experiment was conducted to assess the efficacy of Finsolv® TN as an adjuvant in compositions of mesotrione. This was carried out as outlined above, with the following change: samples were assessed at 6, 14 and 20 days post application.
The results shown in Table 11 below are mean averages over the two rates of mesotrione, three replicates, the three assessment timings, and the three weed species, and are compared to the efficacy of mesotrione in the absence of adjuvant and mesotrione in the presence of the well-known adjuvant Tween® 20.
as §1, with “An” for “The aromatic ester Finsolv® TN (C12-C15 alkyl benzoate) was tested in a glasshouse against three weed species using the herbicide mesotrione. An”
as §2, with “Brij®96. The results shown in Table 16 below are mean averages over the two rates of mesotrione, three replicates, three assessment timings and three weed species. The results are compared to the efficacy of mesotrione in the absence of an adjuvant and mesotrione in the presence of the commercially available adjuvant Brij®96.” for “Tween® 20.”
An agrochemical composition was prepared containing 0.2% v/v of the adjuvant in a track sprayer and was applied at a volume of 200 liters per hectare. The adjuvant oils were emulsified using a small amount of the surfactant Pluronic® PE 10500, which was present in the composition at a concentration of 0.02% v/v. Mesotrione was applied at either 60 or 120 grams of pesticide per hectare on weeds which had been grown to the 1.3 or 1.4 leaf stage. The weed species were Xanthium strumarium (XANST), Brachiaria platyphylla (BRAPL), and Digitaria sanguinalis (DIGSA). […]

[3] = test system: Brachiaria platyphylla (BRAPL); assay: Glasshouse weed test, mesotrione with adjuvants; conditions: Table 10, Example 7: mesotrione 60 or 120 g/ha; adjuvant 0.2% v/v; Tetronic 1107 in spray tank; mean over two rates, three replicates, 7, 14 and 20 days
Experimental: as §1, §2

[4] = test system: Digitaria sanguinalis (DIGSA); assay: Glasshouse weed test, mesotrione with adjuvants; conditions: Table 10, Example 7: mesotrione 60 or 120 g/ha; adjuvant 0.2% v/v; Tetronic 1107 in spray tank; mean over two rates, three replicates, 7, 14 and 20 days
Experimental: as §1, §2

[5] = test system: Xanthium strumarium (XANST); assay: Glasshouse weed test, mesotrione with adjuvants; conditions: Table 10, Example 7: mesotrione 60 or 120 g/ha; adjuvant 0.2% v/v; Tetronic 1107 in spray tank; mean over two rates, three replicates, 7, 14 and 20 days
Experimental: as §1, §2

CS(=O)(=O)c1ccc(C(=O)C2C(=O)CCCC2=O)c([N+](=O)[O-])c1 [Mesotrione, mesotrione]
Mean percentage kill, Mean across species [1]: 33.7D %
Mean percentage kill, Mean across species ([2]; Table 10, Example 7: mesotrione 60 or 120 g/ha, adjuvant 0.2% v/v, Tetronic 1107 in spray tank, three replicates, 7, 14 and 20 days): 19.9 B %
Mean percentage kill, Mean across species ([2]; Table 11, Example 7 second experiment: mesotrione 60 or 120 g/ha, adjuvant 0.2% v/v, three replicates, 6, 14 and 20 days, three weed species): 33.0 B %
Mean percentage kill, Mean across species ([2]; Table 16, Example 12: mesotrione 60 or 120 g/ha, adjuvant 0.2% v/v, Tetronic 1107 in spray tank, three replicates, 7, 14 and 20 days, three weed species): 18.0 C %
Mean percentage kill, Mean across species ([2]; Table 21, Example 17: mesotrione 60 or 120 g/ha, adjuvant 0.2% v/v emulsified with Pluronic PE 10500 0.02% v/v, Tetronic 1107, three replicates, 14 and 21 days, three weed species): 19.9C %
Mean percentage kill, Mean across species ([2]; Table 29, Example 26: mesotrione 60 or 120 g/ha, adjuvant 0.2% v/v, Tetronic 1107, three replicates, 14 and 21 days, three weed species): 39.4C %
Mean percentage kill, Mean across species ([2]; Table 35, Example 35: mesotrione 60 or 120 g/ha, adjuvant 0.2% v/v, Tetronic 1107, three replicates, 14 and 21 days, three weed species): 33.8B %
Mean percentage kill BRAPL [3]: 5.3 B %
Mean percentage kill DIGSA [4]: 20.0 B %
Mean percentage kill XANST [5]: 36.7 A %

— patent US10206388B2, “Formulation component” (SYNGENTA LIMITED, priority 2011, dated 2019)
